Earlier results, collected in Sander's compilation of Henry's law constants.

Experiment: Henry solubility constant Hcp at 298.15 K (mol/(m3 Pa))
Details: cited value
[1] = reference: Mackay et al. (1992b)
[2] = reference: Barcelo and Hennion (1997)
[3] = reference: Burkholder et al. (2015)
[4] = reference: Burkholder et al. (2019)
[5] = reference: Sander et al. (2011)
[6] = reference: Fogg and Sangster (2003)
[7] = reference: Gaffney and Senum (1984)
[8] = reference: Sander et al. (2006)

Structure (SMILES): CCCCCCOC(=O)c1ccccc1C(=O)OCCCCCC [dihexyl phthalate]
- Henry solubility constant Hcp (reference: Brockbank (2013)): 8.3

Structure (SMILES): [Kr] [krypton]
- Henry solubility constant Hcp (reference: Clever (1979b)): 2.5e-05

Structure (SMILES): CCCCOC(C)=O [butyl ethanoate]
- Henry solubility constant Hcp (reference: Brockbank (2013)): 0.038
- Henry solubility constant Hcp (reference: Goldstein (1982)): 0.021

Structure (SMILES): CC(C)CCC(C)C [2,5-dimethylhexane]
- Henry solubility constant Hcp (reference: Brockbank (2013)): 3.1e-06

Structure (SMILES): CCCCCl [1-chlorobutane]
- Henry solubility constant Hcp (reference: Brockbank (2013)): 0.00056

Structure (SMILES): COC(=O)c1c(Cl)c(Cl)c(C(=O)OC)c(Cl)c1Cl [dacthal]
- Henry solubility constant Hcp (reference: Muir et al. (2004)): 4.4

Structure (SMILES): c1ccc2cc3cc4ccccc4cc3cc2c1 [naphthacene]
- Henry solubility constant Hcp [1]: 250

Structure (SMILES): Nc1ccc([N+](=O)[O-])cc1 [4-nitrobenzenamine]
- Henry solubility constant Hcp (reference: Brockbank (2013)): 8700

Structure (SMILES): CC(=O)c1ccccc1 [1-phenylethanone]
- Henry solubility constant Hcp (reference: Brockbank (2013)): 1.1

Structure (SMILES): c1ccc(-c2ccccc2)cc1 [biphenyl]
- Henry solubility constant Hcp (reference: Brockbank (2013)): 0.036

Structure (SMILES): CC(C)C#N [2-methylpropanenitrile]
- Henry solubility constant Hcp (reference: Brockbank (2013)): 0.11
- Henry solubility constant Hcp (reference: Plyasunov et al. (2006)): 0.1

Structure (SMILES): C#CC(C)(C)NC(=O)c1cc(Cl)cc(Cl)c1 [propyzamide]
- Henry solubility constant Hcp [2]: 0.052

Structure (SMILES): CCC(=O)OC [methyl propanoate]
- Henry solubility constant Hcp (reference: Brockbank (2013)): 0.058

Structure (SMILES): FC(F)F [trifluoromethane]
- Henry solubility constant Hcp [3]: 0.00013
- Henry solubility constant Hcp [4]: 0.00013
- Henry solubility constant Hcp [5]: 0.00013

Structure (SMILES): CC(C)(C)c1cc([N+](=O)[O-])cc([N+](=O)[O-])c1O [dinoterb]
- Henry solubility constant Hcp [2]: 1.7

Structure (SMILES): Nc1ccc(-c2ccc(N)cc2)cc1 [benzidine]
- Henry solubility constant Hcp (reference: Mackay et al. (1995)): 25

Structure (SMILES): C=CC [propene]
- Henry solubility constant Hcp (reference: Deno and Berkheimer (1960)): 9.2e-05

Structure (SMILES): OCC(F)(F)C(F)F [2,2,3,3-tetrafluoro-1-propanol]
- Henry solubility constant Hcp [3]: 1.4
- Henry solubility constant Hcp [4]: 1.4
- Henry solubility constant Hcp [5]: 1.4

Structure (SMILES): c1cc2ccc3ccc4ccc5cccc6c(c1)c2c3c4c56 [benzo[ghi]perylene]
- Henry solubility constant Hcp [1]: 13

Structure (SMILES): C=CCO [2-propen-1-ol]
- Henry solubility constant Hcp (reference: Goldstein (1982)): 4.3
- Henry solubility constant Hcp (reference: Pierotti et al. (1959)): 2

Structure (SMILES): CCC(C)(C)CC [3,3-dimethylpentane]
- Henry solubility constant Hcp (reference: Brockbank (2013)): 5.6e-06

Structure (SMILES): c1ccc2c(c1)-c1cccc3cccc-2c13 [benzo[jk]fluorene]
- Henry solubility constant Hcp (reference: Brockbank (2013)): 0.7
- Henry solubility constant Hcp [6]: 0.54
- Henry solubility constant Hcp (reference: Petrasek et al. (1983)): 0.99

Structure (SMILES): O=C(O)CF [fluoroethanoic acid]
- Henry solubility constant Hcp [3]: 800
- Henry solubility constant Hcp [4]: 800
- Henry solubility constant Hcp [5]: 800

Structure (SMILES): CCCCc1ccccc1 [butylbenzene]
- Henry solubility constant Hcp (reference: Brockbank (2013)): 0.00071

Structure (SMILES): CC(C)=O [propanone]
- Henry solubility constant Hcp (reference: Brockbank (2013)): 0.29
- Henry solubility constant Hcp [3]: 0.27
- Henry solubility constant Hcp [4]: 0.27
- Henry solubility constant Hcp (reference: Butler and Ramchandani (1935)): 0.3
- Henry solubility constant Hcp (reference: Cabani et al. (1981)): 0.27
- Henry solubility constant Hcp [6]: 0.26
- Henry solubility constant Hcp [7]: 0.3
- Henry solubility constant Hcp (reference: Hine and Weimar (1965)): 0.031
- Henry solubility constant Hcp (reference: Poulain et al. (2010)): 0.33
- Henry solubility constant Hcp [8]: 0.28
- Henry solubility constant Hcp [5]: 0.27
- Henry solubility constant Hcp (reference: Schaffer and Daubert (1969)): 0.22

Structure (SMILES): CCCCNCCCC [dibutylamine]
- Henry solubility constant Hcp (reference: Brockbank (2013)): 0.13

Structure (SMILES): Cc1cccc(O)c1 [1-hydroxy-3-methylbenzene]
- Henry solubility constant Hcp (reference: Brockbank (2013)): 12
- Henry solubility constant Hcp (reference: Howard (1989)): 11

Structure (SMILES): CC(Cl)(Cl)Cl [1,1,1-trichloroethane]
- Henry solubility constant Hcp (reference: Barr and Newsham (1987)): 0.00058
- Henry solubility constant Hcp (reference: Brockbank (2013)): 0.00058
- Henry solubility constant Hcp [3]: 0.0006
- Henry solubility constant Hcp [4]: 0.0006
- Henry solubility constant Hcp [6]: 0.00062
- Henry solubility constant Hcp (reference: Goldstein (1982)): 0.0022

Structure (SMILES): O=C(O)c1ccccc1 [benzenecarboxylic acid]
- Henry solubility constant Hcp (reference: Goldstein (1982)): 140
- Henry solubility constant Hcp (reference: Howard (1989)): 140

Structure (SMILES): FOF [difluorine monoxide]
- Henry solubility constant Hcp (reference: Schäfer and Lax (1962)): 2.9e-05

Structure (SMILES): CCCCCCCCCC [decane]
- Henry solubility constant Hcp (reference: Brockbank (2013)): 1.3e-06

Structure (SMILES): N#CCc1ccccc1 [benzeneacetonitrile]
- Henry solubility constant Hcp (reference: Brockbank (2013)): 1.1

Structure (SMILES): OCC(O)CO [1,2,3-propanetriol]
- Henry solubility constant Hcp [3]: 4.7e+06
- Henry solubility constant Hcp [4]: 4.7e+06

Structure (SMILES): CC[N+](=O)[O-] [nitroethane]
- Henry solubility constant Hcp (reference: Brockbank (2013)): 0.21
- Henry solubility constant Hcp [3]: 0.21
- Henry solubility constant Hcp [4]: 0.21
- Henry solubility constant Hcp [7]: 0.21
- Henry solubility constant Hcp [8]: 0.21
- Henry solubility constant Hcp [5]: 0.21
